IC50 data for 33 compounds are collected here from patent US11976059B2 (KOREA RESEARCH INSTITUTE OF CHEMICAL TECHNOLOGY, priority 2018, dated 2024).

For the test, the target named is EGFR L858R/T790M/C797S mutant enzyme (Homo sapiens (Human), UniProt P00533, C797S/L858R/T790M). Briefly: EGFR mutant enzyme inhibition, HTRF system (Cisbio). It counts as biochemical. Particulars: ATP 1 mM, 37° C. for 2 hours. How it is done:
In order to evaluate the inhibitory activity of the compound represented by formula 1 according to the present invention against EGFR mutation, the following experiment was performed.
The activity of the compound of the present invention against EGFR mutant enzyme was measured using the HTRF system of Cisbio Co. As an EGFR L858R/T790M/C797S mutant enzyme, a protein provided by SignalChem was purchased and used as an enzyme source.
The composition of the assay buffer used for the activity measurement was as follows: 50 mM Tris-HCl (pH 7.5), 100 mM NaCl, 7.5 mM MgCl2, 3 mM KCl, 0.01% Tween 20, 0.1% BSA, and 1 mM DTT. Herein, an enzyme reaction was performed using a peptide substrate labeled with ATP at the concentration of 1 mM and biotin at the concentration of 0.5 μM. The analysis of the EGFR activity inhibitory effect of the compound was performed according to the following analytical reaction recipe.
Component 1: 4 μl of EGFR mutant enzyme
Component 2: 2 μl of compound solution
Component 3: 4 μl of ATP and biotin-labeled peptide mixture
The enzyme reaction was initiated by mixing the component 1 and the component 2 first and then adding the component 3 thereto. After reacting the mixture at 37° C. for 2 hours, 10 μl of a measurement solution consisting of streptavidin-XL665 and europium-labeled anti-phosphotyrosine antibody provided by Cisbio was added to the enzyme reaction solution, followed by reaction at room temperature for 1 hour. Finally, the ratio of the fluorescence values at 615 nm and 665 nm was calculated using Envision equipment of Perkin-Elmer to quantitatively measure the enzyme activity and confirm the inhibitory ability of the compound. The values measured at 7 concentrations of the compound were analyzed using Prism program (version 5.01, Graphpad Software, Inc.), and the IC50 value, an index of the inhibitory ability of the compound, was calculated.
(In TR-FRET formats the signal depends on donor and acceptor labels being close together.)

Broadly, the IC50 is the midpoint of a concentration-inhibition curve. Low readings indicate higher potency, high ones lower potency.

Sequence of EGFR L858R/T790M/C797S mutant enzyme (P00533 25-1210 T790M/C797S/L858R): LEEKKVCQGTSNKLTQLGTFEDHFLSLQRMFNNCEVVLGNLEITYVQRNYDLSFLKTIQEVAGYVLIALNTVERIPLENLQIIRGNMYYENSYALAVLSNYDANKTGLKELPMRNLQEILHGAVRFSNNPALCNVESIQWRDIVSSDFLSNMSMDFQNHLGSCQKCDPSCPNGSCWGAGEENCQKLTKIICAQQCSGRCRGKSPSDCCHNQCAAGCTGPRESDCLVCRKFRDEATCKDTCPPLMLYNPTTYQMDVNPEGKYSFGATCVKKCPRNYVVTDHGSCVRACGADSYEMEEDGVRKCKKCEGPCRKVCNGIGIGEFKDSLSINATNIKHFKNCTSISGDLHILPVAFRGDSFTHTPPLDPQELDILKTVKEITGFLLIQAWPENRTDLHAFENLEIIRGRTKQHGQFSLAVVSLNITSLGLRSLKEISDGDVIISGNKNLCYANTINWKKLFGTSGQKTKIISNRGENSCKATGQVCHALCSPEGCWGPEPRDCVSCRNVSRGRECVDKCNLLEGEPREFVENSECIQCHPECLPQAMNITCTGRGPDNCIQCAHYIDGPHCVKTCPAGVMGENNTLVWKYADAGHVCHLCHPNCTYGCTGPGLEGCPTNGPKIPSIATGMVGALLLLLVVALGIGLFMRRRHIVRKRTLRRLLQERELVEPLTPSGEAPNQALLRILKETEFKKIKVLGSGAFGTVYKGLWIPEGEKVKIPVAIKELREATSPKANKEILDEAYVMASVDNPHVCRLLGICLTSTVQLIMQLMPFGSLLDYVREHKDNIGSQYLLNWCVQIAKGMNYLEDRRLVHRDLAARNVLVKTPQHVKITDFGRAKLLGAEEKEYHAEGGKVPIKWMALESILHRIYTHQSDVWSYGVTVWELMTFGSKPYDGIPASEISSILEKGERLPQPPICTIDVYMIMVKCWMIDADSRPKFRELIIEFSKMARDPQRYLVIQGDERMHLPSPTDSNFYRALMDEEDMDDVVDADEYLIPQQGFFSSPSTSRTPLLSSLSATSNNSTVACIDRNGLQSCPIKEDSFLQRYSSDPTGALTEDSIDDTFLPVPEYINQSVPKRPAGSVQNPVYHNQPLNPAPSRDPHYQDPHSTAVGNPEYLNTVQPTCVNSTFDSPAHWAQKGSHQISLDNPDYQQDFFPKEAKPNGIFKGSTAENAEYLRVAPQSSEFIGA

`O=C1c2ccccc2CN1C(c1nc2ccccc2[nH]1)c1ccccc1O` (stereo not drawn) [Example 1, 2-((1H-benzo[d]imidazole-2-yl)(2-hydroxyphenyl)methyl)isoindolin-1-one] displayed an IC50 of 1000 nM.

With `O=C1c2ccccc2CN1C(c1nc2ccc(F)cc2[nH]1)c1ccccc1O` (stereo not drawn) [Example 2, 2-((6-fluoro-1H-benzo[d]imidazole-2-yl)(2-hydroxyphenyl)methyl)isoindolin-1-one], the IC50 was found to be 2200 nM.

`O=C1c2ccccc2CN1C(c1nc2cccnc2[nH]1)c1ccccc1O` (stereo not drawn) [Example 3, 2-((2-hydroxyphenyl)(3H-imidazo[4,5-b]pyridine-2-yl)methyl)isoindolin-1-one] registered an IC50 of 2300 nM.

`O=C1c2ccccc2CN1C(c1nc2ccc(Cl)cc2[nH]1)c1ccccc1O` (stereo not drawn) [Example 4, 2-((6-chloro-1H-benzo[d]imidazole-2-yl)(2-hydroxyphenyl)methyl)isoindolin-1-one] gave an IC50 of 4400 nM.

Compound `O=C1c2ccccc2CN1C(c1nc2cc(Cl)c(Cl)cc2[nH]1)c1ccccc1O` (stereo not drawn) [Example 5, 2-((5,6-dichloro-1H-benzo[d]imidazole-2-yl)(2-hydroxyphenyl)methyl)isoindolin-1-one] displayed an IC50 of 7000 nM.

Regarding `O=C1c2ccccc2CN1C(c1nc2ccc(Cl)nc2[nH]1)c1ccccc1O` (stereo not drawn) [Example 6, 2-((5-chloro-3H-imidazo[4,5-b]pyridine-2-yl)(2-hydroxyphenyl)methyl)isoindolin-1-one], the IC50 was > 10000 nM.

Compound `O=C1c2ccccc2CN1C(c1nc2ccccc2[nH]1)c1cc(F)ccc1O` (stereo not drawn) [Example 7, 2-((1H-benzo[d]imidazole-2-yl)(5-fluoro-2-hydroxyphenyl)methyl)isoindolin-1-one] returned an IC50 of 700 nM.

In turn, `O=C1c2ccccc2CN1C(c1nc2ccccc2[nH]1)c1cc(Cl)ccc1O` (stereo not drawn) [Example 8, 2-((1H-benzo[d]imidazole-2-yl)(5-chloro-2-hydroxyphenyl)methyl)isoindolin-1-one] registered an IC50 of 170 nM.

In turn, `O=C1c2cc(-c3ccc(N4CCNCC4)cc3)ccc2CN1C(c1nc2ccccc2[nH]1)c1cc(F)ccc1O` (stereo not drawn) [Example 10, 2-((1H-benzo[d]imidazole-2-yl)(5-fluoro-2-hydroxyphenyl)methyl)-6-(4-(piperazine-1-yl)phenyl)isoindolin-1-one] yielded an IC50 of 99 nM.

Take `O=C1c2cc(-c3ccc(N4CCNCC4)cc3)ccc2CN1C(c1nc2ccccc2[nH]1)c1cc(Cl)ccc1O` (stereo not drawn) [Example 11, 2-((1H-benzo[d]imidazole-2-yl)(5-chloro-2-hydroxyphenyl)methyl)-6-(4-(piperazine-1-yl)phenyl)isoindolin-1-one]: the IC50 was determined as 150 nM.

Take `Nc1ccc(-c2ccc3c(c2)C(=O)N(C(c2nc4ccccc4[nH]2)c2ccccc2O)C3)cc1` (stereo not drawn) [Example 12, 2-((1H-benzo[d]imidazole-2-yl)(2-hydroxyphenyl)methyl)-6-(4-aminophenyl)isoindolin-1-one]: 500 nM corresponded to half-maximal inhibition (IC50). Against the preceding compound, the IC50 is about 3.3-fold higher.

`Nc1ccc(-c2ccc3c(c2)C(=O)N(C(c2nc4ccccc4[nH]2)c2cc(Cl)ccc2O)C3)cc1` (stereo not drawn) [Example 14, 2-((1H-benzo[d]imidazole-2-yl)(5-chloro-2-hydroxyphenyl)methyl)-6-(4-aminophenyl)isoindolin-1-one]: the IC50 worked out at 1300 nM. Against the preceding compound, the IC50 is about 2.6-fold higher.

On to `O=C1c2cc(C3=CCNCC3)ccc2CN1C(c1nc2ccccc2[nH]1)c1ccccc1O` (stereo not drawn) [Example 15, 2-((1H-benzo[d]imidazole-2-yl)(2-hydroxyphenyl)methyl)-6-(1,2,3,6-tetrahydropyridine-4-yl)isoindolin-1-one], for which half-maximal inhibition (IC50) required 8800 nM.

Compound `O=C1c2cc(C3=CCNCC3)ccc2CN1C(c1nc2ccccc2[nH]1)c1cc(F)ccc1O` (stereo not drawn) [Example 16] gave an IC50 of 2900 nM. Against the preceding compound, the IC50 is about 3-fold lower.

In turn, `O=C1c2cc(C3=CCNCC3)ccc2CN1C(c1nc2ccccc2[nH]1)c1cc(Cl)ccc1O` (stereo not drawn) [Example 17] gave an IC50 of 1100 nM.

As to `CN1CCN(c2ccc(-c3ccc4c(c3)C(=O)N(C(c3nc5ccccc5[nH]3)c3cc(F)ccc3O)C4)cc2)CC1` (stereo not drawn) [Example 18, 2-((1H-benzo[d]imidazole-2-yl)(5-fluoro-2-hydroxyphenyl)methyl)-6-(4-(4-methylpiperazine-1-yl)phenyl)isoindolin-1-one], the midpoint of inhibition, the IC50, lay at 130 nM.

In the case of `O=C1c2ccccc2CN1[C@@H](c1cc2ccccc2[nH]1)c1ccccc1O` [Example 19, (R)-2-((2-hydroxyphenyl)(1H-indole-2-yl)methyl)isoindolin-1-one], the half-maximal inhibitory concentration (IC50) is > 10000 nM.

With `Cc1ccc(O)c([C@H](c2cc3ccccc3[nH]2)N2Cc3ccccc3C2=O)c1` [Example 20, (R)-2-((2-hydroxy-5-methylphenyl)(1H-indole-2-yl)methyl)isoindolin-1-one], the IC50 came to 1600 nM.

As for `O=C1c2ccccc2CN1[C@@H](c1cc2ccccc2[nH]1)c1c(O)ccc(F)c1F` [Example 21, (R)-2-((2,3-difluoro-6-hydroxyphenyl)(1H-indole-2-yl)methyl)isoindolin-1-one], the IC50 was > 10000 nM.

With `O=C1c2ccccc2CN1[C@@H](c1cc2ccccc2[nH]1)c1cc(F)c(F)cc1O` [Example 22, (R)-2-((4,5-difluoro-2-hydroxyphenyl)(1H-indole-2-yl)methyl)isoindolin-1-one], the IC50 is > 10000 nM.

Compound `O=C1c2ccccc2CN1[C@@H](c1cc2ccccc2[nH]1)c1cc(F)ccc1O` [Example 23, (R)-2-((5-fluoro-2-hydroxyphenyl)(1H-indole-2-yl)methyl)isoindolin-1-one] displayed an IC50 of 2400 nM. In other words, the single-digit micromolar range.

On to `O=C1c2ccccc2CN1[C@H](c1cc2ccccc2[nH]1)c1cc(F)ccc1O` [Example 24, (S)-2-((5-fluoro-2-hydroxyphenyl)(1H-indole-2-yl)methyl)isoindolin-1-one], for which half-maximal inhibition (IC50) required 3300 nM.

As for `O=C1c2ccccc2CN1[C@@H](c1cc2ccccc2[nH]1)c1c(O)cccc1F` [Example 25, (R)-2-((2-fluoro-6-hydroxyphenyl)(1H-indole-2-yl)methyl)isoindolin-1-one], the 50% inhibitory concentration (IC50) is > 10000 nM.

For the compound `O=C1c2ccccc2CN1[C@@H](c1cc2ccccc2[nH]1)c1cc(Cl)ccc1O` [Example 26, (R)-2-((5-chloro-2-hydroxyphenyl)(1H-indole-2-yl)methyl)isoindolin-1-one], the IC50 came to 190 nM.

In turn, `O=C1c2ccccc2CN1[C@H](c1cc2cccnc2[nH]1)c1cc(F)ccc1O` [Example 27, (S)-2-((5-fluoro-2-hydroxyphenyl)(1H-pyrrolo[2,3-b]pyridine-2-yl)methyl)isoindolin-1-one] displayed an IC50 of 280 nM. The IC50 values of the last two compounds are within 1.5-fold of each other.

In turn, `Nc1ccc(-c2ccc3c(c2)C(=O)N([C@@H](c2cc4ccccc4[nH]2)c2ccccc2O)C3)cc1` [Example 28, (R)-6-(4-aminophenyl)-2-((2-hydroxyphenyl)(1H-indole-2-yl)methyl)isoindolin-1-one] yielded an IC50 of 160 nM.

On to `Nc1ccc(-c2ccc3c(c2)C(=O)N([C@@H](c2cc4ccccc4[nH]2)c2cc(F)ccc2O)C3)cc1` [Example 29, (R)-6-(4-aminophenyl)-2-((5-fluoro-2-hydroxyphenyl)(1H-indole-2-yl)methyl)isoindolin-1-one], for which the IC50 was 280 nM.

Take `Nc1ccc(-c2ccc3c(c2)C(=O)N([C@@H](c2cc4ccccc4[nH]2)c2cc(Cl)ccc2O)C3)cc1` [Example 30, (R)-6-(4-aminophenyl)-2-((5-chloro-2-hydroxyphenyl)(1H-indole-2-yl)methyl)isoindolin-1-one]: half-maximal inhibition (IC50) was put at 120 nM.

In turn, `O=C1c2cc(-c3ccc(N4CCNCC4)cc3)ccc2CN1[C@@H](c1cc2ccccc2[nH]1)c1ccccc1O` [Example 31, (R)-2-((2-hydroxyphenyl)(1H-indole-2-yl)methyl)-6-(4-(piperazine-1-yl)phenyl)isoindolin-1-one] registered an IC50 of 18 nM.

`O=C1c2cc(C3=CCNCC3)ccc2CN1[C@@H](c1cc2ccccc2[nH]1)c1ccccc1O` [Example 34, (R)-2-((2-hydroxyphenyl)(1H-indole-2-yl)methyl)-6-(1,2,3,6-tetrahydropyridine-4-yl)isoindolin-1-one] registered an IC50 of 2900 nM.

In the case of `O=C1c2cc(C3=CCNCC3)ccc2CN1[C@@H](c1cc2ccccc2[nH]1)c1cc(F)ccc1O` [Example 35, (R)-2-((5-fluoro-2-hydroxyphenyl)(1H-indole-2-yl)methyl)-6-(1,2,3,6-tetrahydropyridine-4-yl)isoindolin-1-one], the IC50 is 730 nM.

Compound `O=C1c2cc(C3=CCNCC3)ccc2CN1[C@@H](c1cc2ccccc2[nH]1)c1cc(Cl)ccc1O` [Example 36, (R)-2-((5-chloro-2-hydroxyphenyl)(1H-indole-2-yl)methyl)-6-(1,2,3,6-tetrahydropyridine-4-yl)isoindolin-1-one] came in with a concentration for half-maximal inhibition (IC50) of 2400 nM.

In the case of `O=C1c2cc(N3CCNCC3)ccc2CN1[C@@H](c1cc2ccccc2[nH]1)c1cc(F)ccc1O` [Example 37, (R)-2-((5-fluoro-2-hydroxyphenyl)(1H-indole-2-yl)methyl)-6-(piperazine-1-yl)isoindolin-1-one], the IC50 was > 10000 nM.
